IC50 data for 31 compounds are collected here from patent US10703764B2, “Benzopiperazine compositions as BET bromodomain inhibitors” (FORMA Therapeutics, Inc., priority 2013, dated 2020).

One experiment concerns the target T1, BRD4 BD1 (Homo sapiens, UniProt O60885).
T1 construct: made in house
The experiment is described as follows: AlphaScreen binding assay, BRD4 Bromodomain 1. The procedure, abridged: (§1)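 Compound dilution series were mixed with His-tagged BRD4 bromodomain and biotinylated tetra-acetylated H4 (1-21) peptide at pH 7.3 (BD1 and peptide at 50 nM, BD2 and peptide at 100 nM). Donor and acceptor beads were then added, and plates were equilibrated at least 1 h before reading. IC50 values were fitted with a four-parameter logistic model.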
(In general: In Alpha technology, singlet oxygen from a donor bead excites a nearby acceptor bead.)

For another experiment, the target named is T2, BRD4 BD2 (Homo sapiens, UniProt O60885).
T2 construct: made in house
The experiment is described as follows: AlphaScreen binding assay, BRD4 Bromodomain 2. The procedure, abridged:
as §1

The subject of a further experiment is MV4-11 cells. The experiment is described as follows: Oncology cell growth assay (3-day proliferation, CellTiter-Glo). As to conditions: Homo sapiens, MV4-11, 72 h, AML cell line MV4-11, 72 hours, compounds grouped by IC50 range, read-out: MV4-11 IC50 (inhibition of proliferation, gIC50). It is filed as cell-based. The procedure, abridged: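 72 h, 37° C, 5% CO2; MV4-11, 3000 cells/well, RPMI 1640 + 10% FBS. Compound final 10, 3.3, 1.1, 0.37, 0.12, 0.041, 0.013, 0.0045 μM. Readout CellTiter-Glo luminescence; gIC50 by 4-parameter logistic fit, normalised to DMSO and no-cell background.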

For `CCOC(=O)N1C[C@H](C)N(C(C)=O)c2ccc(-c3ccc(S(=O)(=O)C(C)C)cc3)cc21` [Example I-1064], the results for the IC50 at BRD4 BD1, at BRD4 BD2 and in the experiment on MV4-11 cells were 1000 to 10000 nM, 50 to 500 nM and more than 500 nM, respectively.

Regarding `CC(=O)N1c2ccc(-c3ccc(S(=O)(=O)C(C)C)cc3)cc2N(C(=O)OC(C)C)C[C@@H]1C` [Example I-1065], the results for the IC50 on BRD4 BD1, on BRD4 BD2 and in the experiment with MV4-11 cells were 100 to 1000 nM, 50 to 500 nM and 100 to 500 nM, respectively.

Consider `CC(=O)N1c2ccc(-c3ccc(S(N)(=O)=O)cc3)cc2N(C(=O)C2CC2)C[C@@H]1C` [Example I-1066], for which the IC50 was 1000 to 10000 nM on BRD4 BD1, 50 to 500 nM on BRD4 BD2 and more than 500 nM with MV4-11 cells.

Turning to `CC(=O)N1c2ccc(-c3ccc(S(N)(=O)=O)cc3)cc2N(C(=O)C2CCC2)C[C@@H]1C` [Example I-1067], the results for the IC50 at BRD4 BD1, at BRD4 BD2 and in the experiment on MV4-11 cells were more than 10000 nM, 50 to 500 nM and more than 500 nM, respectively.

On to `CCOC(=O)N1C[C@H](C)N(C(C)=O)c2ccc(-c3ccc(S(N)(=O)=O)cc3)cc21` [Example I-1068], for which the values for the IC50 on BRD4 BD1, at BRD4 BD2 and in the experiment on MV4-11 cells were 1000 to 10000 nM, 50 to 500 nM and more than 500 nM, respectively.

As for `CC(=O)N1c2ccc(-c3ccc(S(N)(=O)=O)cc3)cc2N(C(=O)OC(C)C)C[C@@H]1C` [Example I-1069], the IC50 was 100 to 1000 nM at BRD4 BD1, 50 to 500 nM on BRD4 BD2 and 100 to 500 nM in the experiment on MV4-11 cells.

For the compound `CCCS(=O)(=O)c1ccc(-c2ccc3c(c2)N(C(=O)C2CC2)C[C@H](C)N3C(C)=O)cc1` [Example I-1070], the IC50 at BRD4 BD1 was in the range of 1000 to 10000 nM; on BRD4 BD2 it was 50 to 500 nM; in the experiment on MV4-11 cells it was 100 to 500 nM.

On to `CCCS(=O)(=O)c1ccc(-c2ccc3c(c2)N(C(=O)C2CCC2)C[C@H](C)N3C(C)=O)cc1` [Example I-1071], for which the figures for the IC50 on BRD4 BD1, at BRD4 BD2 and in the experiment with MV4-11 cells were 1000 to 10000 nM, 50 to 500 nM and 100 to 500 nM, respectively.

On to `CCCS(=O)(=O)c1ccc(-c2ccc3c(c2)N(C(=O)OCC)C[C@H](C)N3C(C)=O)cc1` [Example I-1072], for which the IC50 on BRD4 BD1 lay in the range of 100 to 1000 nM; at BRD4 BD2, 50 to 500 nM; with MV4-11 cells, 100 to 500 nM.

`CCCS(=O)(=O)c1ccc(-c2ccc3c(c2)N(C(=O)OC(C)C)C[C@H](C)N3C(C)=O)cc1` [Example I-1073]: the results for the IC50 at BRD4 BD1, at BRD4 BD2 and in the experiment on MV4-11 cells were 100 to 1000 nM, 50 to 500 nM and 100 to 500 nM, respectively.

Take `CC(=O)N1c2ccc(-c3ccc(S(=O)(=O)CC4CC4)cc3)cc2N(C(=O)C2CC2)C[C@@H]1C` [Example I-1074]: the figures for the IC50 on BRD4 BD1, at BRD4 BD2 and in the experiment on MV4-11 cells were 1000 to 10000 nM, 50 to 500 nM and more than 500 nM, respectively.

Regarding `CC(=O)N1c2ccc(-c3ccc(S(=O)(=O)CC4CC4)cc3)cc2N(C(=O)C2CCC2)C[C@@H]1C` [Example I-1075], the IC50 on BRD4 BD1 is 1000 to 10000 nM; at BRD4 BD2, 50 to 500 nM; in the experiment with MV4-11 cells it was more than 500 nM.

For the compound `CCOC(=O)N1C[C@H](C)N(C(C)=O)c2ccc(-c3ccc(S(=O)(=O)CC4CC4)cc3)cc21` [Example I-1076], the IC50 is 1000 to 10000 nM on BRD4 BD1, 50 to 500 nM on BRD4 BD2 and more than 500 nM with MV4-11 cells.

For the compound `CC(=O)N1c2ccc(-c3ccc(S(=O)(=O)CC4CC4)cc3)cc2N(C(=O)OC(C)C)C[C@@H]1C` [Example I-1077], the IC50 at BRD4 BD1 was 1000 to 10000 nM; at BRD4 BD2, 50 to 500 nM; with MV4-11 cells, 100 to 500 nM.

In the case of `CC(=O)N1c2ccc(-c3ccc(S(=O)(=O)CC(C)C)cc3)cc2N(C(=O)C2CC2)C[C@@H]1C` [Example I-1078], the values for the IC50 on BRD4 BD1, at BRD4 BD2 and with MV4-11 cells were 1000 to 10000 nM, 50 to 500 nM and 100 to 500 nM, respectively.

With `CC(=O)N1c2ccc(-c3ccc(S(=O)(=O)CC(C)C)cc3)cc2N(C(=O)C2CCC2)C[C@@H]1C` [Example I-1079], the IC50 on BRD4 BD1 was 1000 to 10000 nM; at BRD4 BD2, 50 to 500 nM; in the experiment with MV4-11 cells, more than 500 nM.

Turning to `CCOC(=O)N1C[C@H](C)N(C(C)=O)c2ccc(-c3ccc(S(=O)(=O)CC(C)C)cc3)cc21` [Example I-1080], the IC50 was 1000 to 10000 nM on BRD4 BD1, 50 to 500 nM on BRD4 BD2 and more than 500 nM in the experiment with MV4-11 cells.

`CC(=O)N1c2ccc(-c3ccc(S(=O)(=O)CC(C)C)cc3)cc2N(C(=O)OC(C)C)C[C@@H]1C` [Example I-1081]: the IC50 on BRD4 BD1 is 1000 to 10000 nM; at BRD4 BD2, 50 to 500 nM; in the experiment on MV4-11 cells, more than 500 nM.

`CC(=O)N1c2ccc(-c3ccc(S(C)(=O)=O)c(F)c3)cc2N(C(=O)C2CC2)C[C@@H]1C` [Example I-1082]: the IC50 on BRD4 BD1 is 1000 to 10000 nM; at BRD4 BD2, 50 to 500 nM; in the experiment on MV4-11 cells, more than 500 nM.

As to `CC(=O)N1c2ccc(-c3ccc(S(C)(=O)=O)c(F)c3)cc2N(C(=O)C2CCC2)C[C@@H]1C` [Example I-1083], the figures for the IC50 at BRD4 BD1, on BRD4 BD2 and with MV4-11 cells were 1000 to 10000 nM, 50 to 500 nM and more than 500 nM, respectively.

On to `CCOC(=O)N1C[C@H](C)N(C(C)=O)c2ccc(-c3ccc(S(C)(=O)=O)c(F)c3)cc21` [Example I-1084], for which the IC50 on BRD4 BD1 was 1000 to 10000 nM; on BRD4 BD2, 50 to 500 nM; in the experiment on MV4-11 cells it was more than 500 nM.

Regarding `CC(=O)N1c2ccc(-c3ccc(S(C)(=O)=O)c(F)c3)cc2N(C(=O)OC(C)C)C[C@@H]1C` [Example I-1085], the IC50 at BRD4 BD1 is 1000 to 10000 nM; at BRD4 BD2, 50 to 500 nM; in the experiment on MV4-11 cells it was more than 500 nM.

With `CC(=O)N1c2ccc(-c3cccc(S(=O)(=O)C4CC4)c3)cc2N(C(=O)C2CC2)C[C@@H]1C` [Example I-1086], the IC50 at BRD4 BD1 was 1000 to 10000 nM; on BRD4 BD2, 50 to 500 nM; in the experiment with MV4-11 cells, more than 500 nM.

Consider `CC(=O)N1c2ccc(-c3cccc(S(=O)(=O)C4CC4)c3)cc2N(C(=O)C2CCC2)C[C@@H]1C` [Example I-1087], for which the values for the IC50 on BRD4 BD1, at BRD4 BD2 and in the experiment with MV4-11 cells were 1000 to 10000 nM, 50 to 500 nM and more than 500 nM, respectively.

For the compound `CCOC(=O)N1C[C@H](C)N(C(C)=O)c2ccc(-c3cccc(S(=O)(=O)C4CC4)c3)cc21` [Example I-1088], the IC50 at BRD4 BD1 was 1000 to 10000 nM; at BRD4 BD2 it was 50 to 500 nM; in the experiment with MV4-11 cells it was more than 500 nM.

On to `CC(=O)N1c2ccc(-c3cccc(S(=O)(=O)C4CC4)c3)cc2N(C(=O)OC(C)C)C[C@@H]1C` [Example I-1089], for which the IC50 at BRD4 BD1 was in the range of 100 to 1000 nM; on BRD4 BD2, 50 to 500 nM; with MV4-11 cells, 100 to 500 nM.

Consider `CCS(=O)(=O)c1cccc(-c2ccc3c(c2)N(C(=O)C2CC2)C[C@H](C)N3C(C)=O)c1` [Example I-1090], for which the IC50 on BRD4 BD1 was 1000 to 10000 nM; on BRD4 BD2, 50 to 500 nM; with MV4-11 cells, more than 500 nM.

For `CCS(=O)(=O)c1cccc(-c2ccc3c(c2)N(C(=O)C2CCC2)C[C@H](C)N3C(C)=O)c1` [Example I-1091], the IC50 on BRD4 BD1 is 1000 to 10000 nM; on BRD4 BD2 it was 50 to 500 nM; with MV4-11 cells, more than 500 nM.

On to `CCOC(=O)N1C[C@H](C)N(C(C)=O)c2ccc(-c3cccc(S(=O)(=O)CC)c3)cc21` [Example I-1092], for which the results for the IC50 at BRD4 BD1, on BRD4 BD2 and with MV4-11 cells were 1000 to 10000 nM, 50 to 500 nM and more than 500 nM, respectively.

Take `CCS(=O)(=O)c1cccc(-c2ccc3c(c2)N(C(=O)OC(C)C)C[C@H](C)N3C(C)=O)c1` [Example I-1093]: the values for the IC50 at BRD4 BD1, at BRD4 BD2 and with MV4-11 cells were 100 to 1000 nM, 50 to 500 nM and 100 to 500 nM, respectively.

Consider `CC(=O)N1c2ccc(-c3cc(Cl)cc(S(C)(=O)=O)c3)cc2N(C(=O)C2CC2)C[C@@H]1C` [Example I-1094], for which the IC50 on BRD4 BD1 was 1000 to 10000 nM; at BRD4 BD2, more than 500 nM; in the experiment on MV4-11 cells, more than 500 nM.
